Test results: patent US10231954B2, “Neurodegenerative therapies” (LYTIX BIOPHARMA AS, priority 2014, dated 2019)

Assays:
Type in all cases: biochemical
Conditions in all cases: 100 micromolar inhibitor concentration; 100 is no change
EPH-B2 = biological target: T1, EPH-B2 (Homo sapiens, UniProt P29323); assay: Kinase profiling EPH-B2
T1 sequence (P29323 19-1055): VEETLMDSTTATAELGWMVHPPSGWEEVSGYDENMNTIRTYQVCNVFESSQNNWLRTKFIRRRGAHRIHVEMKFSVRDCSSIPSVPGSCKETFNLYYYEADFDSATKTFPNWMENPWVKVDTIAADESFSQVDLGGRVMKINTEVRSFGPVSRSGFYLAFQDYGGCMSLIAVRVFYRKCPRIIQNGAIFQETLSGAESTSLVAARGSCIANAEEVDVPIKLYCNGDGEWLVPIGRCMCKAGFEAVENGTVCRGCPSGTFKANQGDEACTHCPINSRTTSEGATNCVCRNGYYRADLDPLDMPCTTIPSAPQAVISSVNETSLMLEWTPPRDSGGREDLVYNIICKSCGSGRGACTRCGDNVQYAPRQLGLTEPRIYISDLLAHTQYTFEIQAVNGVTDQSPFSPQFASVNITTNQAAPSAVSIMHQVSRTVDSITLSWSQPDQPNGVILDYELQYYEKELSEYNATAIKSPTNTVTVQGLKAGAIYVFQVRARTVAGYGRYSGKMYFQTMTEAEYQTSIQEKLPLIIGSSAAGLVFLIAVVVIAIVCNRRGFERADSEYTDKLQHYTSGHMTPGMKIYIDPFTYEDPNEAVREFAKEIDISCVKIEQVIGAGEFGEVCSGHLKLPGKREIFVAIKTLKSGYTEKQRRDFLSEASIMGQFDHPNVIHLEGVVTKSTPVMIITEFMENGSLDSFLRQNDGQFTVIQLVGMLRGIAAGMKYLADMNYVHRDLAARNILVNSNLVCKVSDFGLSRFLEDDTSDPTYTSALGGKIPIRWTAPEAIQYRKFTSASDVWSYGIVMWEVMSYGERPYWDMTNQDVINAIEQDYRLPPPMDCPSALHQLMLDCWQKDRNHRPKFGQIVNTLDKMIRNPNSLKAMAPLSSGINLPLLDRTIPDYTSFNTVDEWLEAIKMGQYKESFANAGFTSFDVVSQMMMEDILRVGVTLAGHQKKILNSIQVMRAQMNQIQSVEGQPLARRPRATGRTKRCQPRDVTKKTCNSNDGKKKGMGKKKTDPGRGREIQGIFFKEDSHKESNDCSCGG
From the text: (§1) Any value less that 25 is considered to be highly significant inhibition.

MELK = MELK (Homo sapiens, UniProt Q14680); assay: Kinase profiling MELK
Sequence of MELK (Q14680 whole entry, species assumed): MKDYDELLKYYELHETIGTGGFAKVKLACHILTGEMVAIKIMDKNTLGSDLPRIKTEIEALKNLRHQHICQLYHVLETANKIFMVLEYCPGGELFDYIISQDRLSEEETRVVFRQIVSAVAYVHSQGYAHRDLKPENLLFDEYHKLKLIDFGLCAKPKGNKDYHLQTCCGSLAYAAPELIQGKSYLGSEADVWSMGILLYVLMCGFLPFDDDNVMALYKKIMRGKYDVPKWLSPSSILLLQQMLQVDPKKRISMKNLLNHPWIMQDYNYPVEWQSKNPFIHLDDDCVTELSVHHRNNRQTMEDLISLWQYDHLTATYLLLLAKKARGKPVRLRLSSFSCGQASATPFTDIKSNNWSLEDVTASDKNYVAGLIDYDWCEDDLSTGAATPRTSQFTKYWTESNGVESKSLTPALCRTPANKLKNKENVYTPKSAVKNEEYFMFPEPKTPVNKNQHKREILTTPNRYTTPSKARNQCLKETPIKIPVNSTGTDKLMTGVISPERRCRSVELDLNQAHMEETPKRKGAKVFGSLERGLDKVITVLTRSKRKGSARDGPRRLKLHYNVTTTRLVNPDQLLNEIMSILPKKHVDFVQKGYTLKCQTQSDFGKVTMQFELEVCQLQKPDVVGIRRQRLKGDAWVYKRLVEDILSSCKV
From the text: as §1

MARK2 = MARK2 (Homo sapiens, UniProt Q7KZI7); assay: Kinase profiling MARK2
Sequence of MARK2 (Q7KZI7 whole entry, species assumed): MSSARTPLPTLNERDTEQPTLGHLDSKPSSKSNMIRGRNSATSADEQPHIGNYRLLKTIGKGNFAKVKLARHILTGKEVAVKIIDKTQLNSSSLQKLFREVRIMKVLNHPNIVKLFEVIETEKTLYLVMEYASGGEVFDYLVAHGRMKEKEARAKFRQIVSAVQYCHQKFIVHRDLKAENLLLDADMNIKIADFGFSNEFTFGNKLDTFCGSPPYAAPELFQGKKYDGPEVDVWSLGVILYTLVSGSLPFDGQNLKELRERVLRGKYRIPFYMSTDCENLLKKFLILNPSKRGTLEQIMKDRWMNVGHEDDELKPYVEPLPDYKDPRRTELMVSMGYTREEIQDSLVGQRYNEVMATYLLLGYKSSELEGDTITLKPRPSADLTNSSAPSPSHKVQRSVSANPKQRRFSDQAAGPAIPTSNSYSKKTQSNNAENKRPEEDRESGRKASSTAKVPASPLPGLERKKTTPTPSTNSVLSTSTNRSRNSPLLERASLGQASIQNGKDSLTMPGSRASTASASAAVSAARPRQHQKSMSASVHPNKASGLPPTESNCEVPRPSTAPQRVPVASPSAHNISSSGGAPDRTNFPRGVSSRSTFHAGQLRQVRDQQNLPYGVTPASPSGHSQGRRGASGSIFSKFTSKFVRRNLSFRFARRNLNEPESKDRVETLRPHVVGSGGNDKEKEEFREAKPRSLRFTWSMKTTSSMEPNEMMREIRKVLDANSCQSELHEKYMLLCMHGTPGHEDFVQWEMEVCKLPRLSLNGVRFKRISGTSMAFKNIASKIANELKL
From the text: as §1

EPH-A4 = EPH-A4 (Homo sapiens, UniProt P54764); assay: Kinase profiling EPH-A4
Sequence of EPH-A4 (P54764 20-986, species assumed): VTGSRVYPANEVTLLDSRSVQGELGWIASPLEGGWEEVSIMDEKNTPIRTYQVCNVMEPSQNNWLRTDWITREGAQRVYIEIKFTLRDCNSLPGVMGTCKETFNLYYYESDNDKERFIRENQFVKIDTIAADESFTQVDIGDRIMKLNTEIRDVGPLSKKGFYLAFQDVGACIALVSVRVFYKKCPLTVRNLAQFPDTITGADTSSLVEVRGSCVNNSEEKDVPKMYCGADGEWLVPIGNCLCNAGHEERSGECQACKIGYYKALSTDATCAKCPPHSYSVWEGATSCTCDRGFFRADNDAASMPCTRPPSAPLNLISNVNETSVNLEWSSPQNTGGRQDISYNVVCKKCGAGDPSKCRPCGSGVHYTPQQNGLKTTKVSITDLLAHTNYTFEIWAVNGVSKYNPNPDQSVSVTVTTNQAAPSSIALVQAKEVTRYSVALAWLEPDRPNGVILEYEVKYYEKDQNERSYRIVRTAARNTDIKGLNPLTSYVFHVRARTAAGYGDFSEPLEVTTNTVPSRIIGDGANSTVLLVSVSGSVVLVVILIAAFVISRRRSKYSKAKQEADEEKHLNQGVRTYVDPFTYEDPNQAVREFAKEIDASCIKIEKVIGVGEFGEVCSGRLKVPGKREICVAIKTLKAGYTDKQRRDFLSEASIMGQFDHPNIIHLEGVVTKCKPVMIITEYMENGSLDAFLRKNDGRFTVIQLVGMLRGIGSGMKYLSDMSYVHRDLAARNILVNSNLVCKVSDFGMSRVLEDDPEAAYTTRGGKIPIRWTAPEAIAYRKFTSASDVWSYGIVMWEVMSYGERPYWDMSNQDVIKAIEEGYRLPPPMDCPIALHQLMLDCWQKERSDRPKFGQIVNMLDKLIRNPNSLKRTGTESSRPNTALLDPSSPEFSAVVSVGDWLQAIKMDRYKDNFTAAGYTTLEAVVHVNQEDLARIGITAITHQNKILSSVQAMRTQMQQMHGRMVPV
From the text: as §1

EPH-B4 = biological target: T2, EPH-B4 (Homo sapiens, UniProt P54760); assay: Kinase profiling EPH-B4
T2 sequence (P54760 16-987): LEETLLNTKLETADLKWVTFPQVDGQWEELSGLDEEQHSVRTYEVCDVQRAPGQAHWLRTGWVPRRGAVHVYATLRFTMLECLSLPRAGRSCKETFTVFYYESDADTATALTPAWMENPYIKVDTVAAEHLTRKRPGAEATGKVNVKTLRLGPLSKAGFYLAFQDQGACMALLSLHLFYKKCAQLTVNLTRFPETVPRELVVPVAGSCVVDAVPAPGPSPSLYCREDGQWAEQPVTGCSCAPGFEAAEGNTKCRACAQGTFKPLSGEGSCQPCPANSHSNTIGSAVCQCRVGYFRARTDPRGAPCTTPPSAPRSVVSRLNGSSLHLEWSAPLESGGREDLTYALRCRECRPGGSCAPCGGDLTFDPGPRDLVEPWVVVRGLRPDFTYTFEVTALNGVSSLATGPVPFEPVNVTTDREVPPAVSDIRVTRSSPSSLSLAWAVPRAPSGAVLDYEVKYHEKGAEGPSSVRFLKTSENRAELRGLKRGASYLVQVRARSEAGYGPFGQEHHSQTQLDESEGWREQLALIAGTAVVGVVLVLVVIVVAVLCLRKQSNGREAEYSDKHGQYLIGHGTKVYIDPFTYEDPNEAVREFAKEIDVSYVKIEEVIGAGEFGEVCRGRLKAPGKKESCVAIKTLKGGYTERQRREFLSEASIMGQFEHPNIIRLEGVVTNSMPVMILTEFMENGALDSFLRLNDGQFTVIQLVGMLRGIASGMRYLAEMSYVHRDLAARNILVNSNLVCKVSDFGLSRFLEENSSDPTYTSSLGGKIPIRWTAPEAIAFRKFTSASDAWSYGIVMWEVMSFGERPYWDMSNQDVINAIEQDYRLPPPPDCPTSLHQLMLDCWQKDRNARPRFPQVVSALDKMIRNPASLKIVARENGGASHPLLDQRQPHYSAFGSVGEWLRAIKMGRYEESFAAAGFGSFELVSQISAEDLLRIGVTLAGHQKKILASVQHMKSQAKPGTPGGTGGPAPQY
From the text: as §1

MARK1 = MARK1 (Homo sapiens, UniProt Q9P0L2); assay: Kinase profiling MARK1
Sequence of MARK1 (Q9P0L2 whole entry, species assumed): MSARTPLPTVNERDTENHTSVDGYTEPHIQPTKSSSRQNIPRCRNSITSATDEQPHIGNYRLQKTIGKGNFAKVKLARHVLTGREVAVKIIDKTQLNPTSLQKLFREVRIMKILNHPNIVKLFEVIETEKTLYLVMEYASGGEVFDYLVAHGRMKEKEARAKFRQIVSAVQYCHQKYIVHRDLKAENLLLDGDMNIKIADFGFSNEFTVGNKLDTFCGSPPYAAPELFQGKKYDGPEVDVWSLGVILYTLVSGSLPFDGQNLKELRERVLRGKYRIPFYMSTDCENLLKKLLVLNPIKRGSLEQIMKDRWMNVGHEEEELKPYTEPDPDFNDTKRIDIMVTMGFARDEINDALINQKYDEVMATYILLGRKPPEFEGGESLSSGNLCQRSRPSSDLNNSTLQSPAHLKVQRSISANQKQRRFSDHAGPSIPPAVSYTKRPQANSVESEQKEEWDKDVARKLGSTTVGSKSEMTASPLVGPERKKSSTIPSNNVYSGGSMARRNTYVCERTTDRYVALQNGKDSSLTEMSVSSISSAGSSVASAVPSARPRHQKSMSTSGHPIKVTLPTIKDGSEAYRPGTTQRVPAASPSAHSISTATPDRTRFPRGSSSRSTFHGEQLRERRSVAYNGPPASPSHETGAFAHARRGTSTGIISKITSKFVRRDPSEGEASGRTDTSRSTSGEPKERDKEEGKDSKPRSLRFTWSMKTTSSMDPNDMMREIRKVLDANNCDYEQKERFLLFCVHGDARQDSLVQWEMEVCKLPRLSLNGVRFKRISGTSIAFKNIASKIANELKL
From the text: as §1

CDK2-Cyclin A = CDK2-Cyclin A (Homo sapiens, UniProt P24941); assay: Kinase profiling CDK2-Cyclin A
From the text: as §1

**Q.** Which results are given for `O=C(Nc1nc2cc(O)ccc2s1)c1ccncc1` [Compound 03-11]?
**A.** residual kinase activity, EPH-B2 (EPH-B2): 89; residual kinase activity, MELK (MELK): 48; residual kinase activity, MARK2 (MARK2): 79; residual kinase activity, EPH-A4 (EPH-A4): 91; residual kinase activity, EPH-B4 (EPH-B4): 97; residual kinase activity, MARK1 (MARK1): 90; residual kinase activity, CDK2-Cyclin A (CDK2-Cyclin A): 98
